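Exposure lasted 48 hours, with cells grown in 96-well plates and compounds tested at five concentrations. Here, GI50 denotes the concentration required for 50% inhibition of growth. Definition used: TGI = concentration required for complete inhibition of growth.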 Where a SMILES comes first, the peptide text is derived from it. The star is where a group is joined. Bn = c1ccc(C*)cc1
How the values were obtained:
Assay in all cases: growth of human tumour cells (NCI), 48 h
SF-268 CNS = system: SF-268 CNS
M14 melanoma = system: M14 melanoma
U251 CNS = system: U251 CNS
TK-10 renal = system: TK-10 renal
HS 578T breast = system: HS 578T breast
NCI/ADR-RES ovarian = system: NCI/ADR-RES ovarian
SF-539 CNS = system: SF-539 CNS
SK-MEL-2 melanoma = system: SK-MEL-2 melanoma
SK-MEL-5 melanoma = system: SK-MEL-5 melanoma
LOX IMVI melanoma = system: LOX IMVI melanoma

## Nc1nc(Nc2ccccc2)sc1C(=O)c1c[nH]c2ccccc12
SF-268 CNS
  TGI: 33.8 µM
M14 melanoma
  TGI: 20.6 µM
U251 CNS
  TGI: 23.6 µM
TK-10 renal
  TGI: 11 µM
HS 578T breast
  TGI: 42.5 µM
NCI/ADR-RES ovarian
  TGI: 44.7 µM
SF-539 CNS
  TGI: 27.4 µM
SK-MEL-2 melanoma
  TGI: 29.8 µM
SK-MEL-5 melanoma
  TGI: 25.1 µM
LOX IMVI melanoma
  TGI: 64.8 µM

## Clc1ccc(Cl)c(SCCCN2CCNCC2)c1
SF-268 CNS
  TGI: 33.9 µM
M14 melanoma
  TGI: 35.3 µM
U251 CNS
  TGI: 34.6 µM
TK-10 renal
  TGI: 31.4 µM
HS 578T breast
  TGI: 35.9 µM
NCI/ADR-RES ovarian
  TGI: 36.2 µM
SF-539 CNS
  TGI: 51.4 µM
SK-MEL-5 melanoma
  TGI: 33.1 µM
LOX IMVI melanoma
  TGI: 35.8 µM

## CCOC(=O)[C@@H]1ON2O[C@@H](OC3CCCC3(c3ccccc3)c3ccccc3)C[C@H]3OC(=O)[C@@H]1C32 (some centres not stated)
SF-268 CNS
  TGI: 70.2 µM
M14 melanoma
  TGI: 51.9 µM
U251 CNS
  TGI: > 100 µM
TK-10 renal
  TGI: 43.6 µM
HS 578T breast
  TGI: > 100 µM
NCI/ADR-RES ovarian
  TGI: > 100 µM
SF-539 CNS
  TGI: 68 µM
SK-MEL-5 melanoma
  TGI: > 100 µM
LOX IMVI melanoma
  TGI: > 100 µM

## COC(=O)C(CC(C)C)NC(=O)C(N)Cc1ccc(OCc2ccccc2)cc1 (configuration not stated) (H-Tyr(Bn)-Leu-OMe; configuration not given here)
SF-268 CNS
  TGI: > 10 µM
M14 melanoma
  TGI: > 10 µM
U251 CNS
  TGI: > 10 µM
TK-10 renal
  TGI: > 10 µM
HS 578T breast
  TGI: > 10 µM
NCI/ADR-RES ovarian
  TGI: > 10 µM
SF-539 CNS
  TGI: > 10 µM
SK-MEL-2 melanoma
  TGI: > 10 µM
SK-MEL-5 melanoma
  TGI: > 10 µM
LOX IMVI melanoma
  TGI: > 10 µM

## O=C([CH-]C(=O)c1ccccc1)c1ccccc1.O=C([CH-]C(=O)c1ccccc1)c1ccccc1.[O]=[U+2]=[O]
M14 melanoma
  GI50: 2.35 µM
  TGI: 6.42 µM
U251 CNS
  GI50: 3.06 µM
  TGI: > 100 µM
TK-10 renal
  GI50: 4.8 µM
  TGI: 26.6 µM
SF-539 CNS
  GI50: 2.45 µM
  TGI: 6.44 µM
SK-MEL-5 melanoma
  GI50: 2.77 µM
  TGI: 9.12 µM
LOX IMVI melanoma
  GI50: 2.7 µM
  TGI: > 100 µM

## NC(=O)c1ncn2c1NC(=O)CC2
SF-268 CNS
  TGI: > 100 µM
U251 CNS
  TGI: > 100 µM
NCI/ADR-RES ovarian
  TGI: > 100 µM
SF-539 CNS
  TGI: > 100 µM
SK-MEL-2 melanoma
  TGI: > 100 µM
SK-MEL-5 melanoma
  TGI: > 100 µM
LOX IMVI melanoma
  TGI: > 100 µM

## O=C(O)c1c2c(cc3c1CC1(Cc4ccccc4C1=O)C3)CCC2 (configuration not stated)
SF-268 CNS
  TGI: > 100 µM
M14 melanoma
  TGI: 70.7 µM
U251 CNS
  TGI: > 100 µM
TK-10 renal
  TGI: > 100 µM
HS 578T breast
  TGI: > 100 µM
NCI/ADR-RES ovarian
  TGI: > 100 µM
SF-539 CNS
  TGI: > 95.4 µM
SK-MEL-2 melanoma
  TGI: 55.1 µM
SK-MEL-5 melanoma
  TGI: > 65 µM
LOX IMVI melanoma
  TGI: > 89.1 µM

## O=C(CCc1cccc(O)c1)NCCCNC(=O)CCc1cccc(O)c1
SF-268 CNS
  TGI: > 100 µM
M14 melanoma
  TGI: > 100 µM
U251 CNS
  TGI: > 100 µM
HS 578T breast
  TGI: > 100 µM
NCI/ADR-RES ovarian
  TGI: > 100 µM
SF-539 CNS
  TGI: > 100 µM
SK-MEL-2 melanoma
  TGI: > 100 µM
SK-MEL-5 melanoma
  TGI: > 100 µM
LOX IMVI melanoma
  TGI: > 100 µM

## N#CCCN(CCC#N)c1ccc(/C=C2\SC(=S)NC2=O)cc1Br
SF-268 CNS
  TGI: > 100 µM
M14 melanoma
  TGI: > 100 µM
U251 CNS
  TGI: 35.1 µM
TK-10 renal
  TGI: > 100 µM
HS 578T breast
  TGI: 27.1 µM
NCI/ADR-RES ovarian
  TGI: > 100 µM
SF-539 CNS
  TGI: > 100 µM
SK-MEL-2 melanoma
  TGI: > 100 µM
SK-MEL-5 melanoma
  TGI: > 100 µM
LOX IMVI melanoma
  TGI: 80.7 µM

## O=C1c2cccc(NCCNCCO)c2C(=O)c2cccc(NCCNCCO)c21
SF-268 CNS
  TGI: 2.15 µM
M14 melanoma
  TGI: 3.57 µM
U251 CNS
  TGI: 10.9 µM
TK-10 renal
  TGI: 23.2 µM
NCI/ADR-RES ovarian
  TGI: 30.9 µM
SF-539 CNS
  TGI: 2.74 µM
SK-MEL-2 melanoma
  TGI: 2.77 µM
SK-MEL-5 melanoma
  TGI: 3.39 µM
LOX IMVI melanoma
  TGI: 1.65 µM

## C[C@]1(S(=O)(=O)c2ccccc2)C[C@H]2N(Cc3ccccc3)[C@@H]1CCC21OCCO1
SF-268 CNS
  TGI: > 100 µM
M14 melanoma
  TGI: > 100 µM
U251 CNS
  TGI: > 100 µM
HS 578T breast
  TGI: > 100 µM
NCI/ADR-RES ovarian
  TGI: > 100 µM
SK-MEL-2 melanoma
  TGI: > 100 µM
SK-MEL-5 melanoma
  TGI: > 100 µM
LOX IMVI melanoma
  TGI: > 100 µM

## Cc1cc(/N=C/c2ccc(C#N)cc2)n(-c2ccccc2)n1
SF-268 CNS
  TGI: > 100 µM
M14 melanoma
  TGI: > 100 µM
U251 CNS
  TGI: > 100 µM
TK-10 renal
  TGI: > 100 µM
HS 578T breast
  TGI: > 100 µM
NCI/ADR-RES ovarian
  TGI: > 100 µM
SF-539 CNS
  TGI: > 100 µM
SK-MEL-2 melanoma
  TGI: > 100 µM
SK-MEL-5 melanoma
  TGI: > 100 µM
LOX IMVI melanoma
  TGI: > 100 µM

## CC(C)(C)C(=O)C(Cc1ccccc1)C(=O)C(C)(C)C
SF-268 CNS
  TGI: > 100 µM
M14 melanoma
  TGI: > 100 µM
U251 CNS
  TGI: > 100 µM
TK-10 renal
  TGI: > 100 µM
HS 578T breast
  TGI: > 100 µM
NCI/ADR-RES ovarian
  TGI: > 100 µM
SF-539 CNS
  TGI: > 100 µM
SK-MEL-2 melanoma
  TGI: > 100 µM
SK-MEL-5 melanoma
  TGI: > 100 µM
LOX IMVI melanoma
  TGI: > 100 µM

## CCCCC#CS(=O)(=O)C(F)(F)F
SF-268 CNS
  TGI: > 100 µM
U251 CNS
  TGI: > 100 µM
NCI/ADR-RES ovarian
  TGI: > 100 µM
SF-539 CNS
  TGI: > 100 µM
SK-MEL-2 melanoma
  TGI: > 100 µM
SK-MEL-5 melanoma
  TGI: > 100 µM
LOX IMVI melanoma
  TGI: > 100 µM

## Cc1cn2c(C)csc2c1P(=O)(OC(C)C)OC(C)C
SF-268 CNS
  TGI: > 100 µM
M14 melanoma
  TGI: > 100 µM
U251 CNS
  TGI: > 100 µM
TK-10 renal
  TGI: > 100 µM
HS 578T breast
  TGI: > 100 µM
NCI/ADR-RES ovarian
  TGI: > 100 µM
SF-539 CNS
  TGI: > 100 µM
SK-MEL-2 melanoma
  TGI: > 100 µM
SK-MEL-5 melanoma
  TGI: > 100 µM
LOX IMVI melanoma
  TGI: > 100 µM

## N#CC(=N)c1ncn(-c2ccccc2N)c1N
SF-268 CNS
  TGI: > 100 µM
M14 melanoma
  TGI: > 100 µM
U251 CNS
  TGI: > 100 µM
TK-10 renal
  TGI: > 100 µM
HS 578T breast
  TGI: > 100 µM
NCI/ADR-RES ovarian
  TGI: > 100 µM
SF-539 CNS
  TGI: > 100 µM
SK-MEL-2 melanoma
  TGI: > 100 µM
SK-MEL-5 melanoma
  TGI: > 100 µM
LOX IMVI melanoma
  TGI: > 100 µM

## OCC(O)C(O)C(O)/C=N/Nc1nc(O)c(/C=C2\C=Nc3ccccc32)[nH]1 (configuration not stated)
SF-268 CNS
  TGI: > 100 µM
M14 melanoma
  TGI: > 100 µM
U251 CNS
  TGI: > 100 µM
TK-10 renal
  TGI: > 100 µM
HS 578T breast
  TGI: > 100 µM
NCI/ADR-RES ovarian
  TGI: > 100 µM
SF-539 CNS
  TGI: > 100 µM
SK-MEL-5 melanoma
  TGI: > 100 µM
LOX IMVI melanoma
  TGI: > 100 µM

## O=C1CC(Sc2nc3ccc(I)cc3c(=O)n2Cc2ccccc2)C(=O)NN1 (configuration not stated)
SF-268 CNS
  TGI: 30.1 µM
M14 melanoma
  TGI: 39.8 µM
U251 CNS
  TGI: 29.4 µM
TK-10 renal
  TGI: 30.5 µM
HS 578T breast
  TGI: 42.4 µM
NCI/ADR-RES ovarian
  TGI: 52.1 µM
SF-539 CNS
  TGI: 35.5 µM
SK-MEL-2 melanoma
  TGI: 31.8 µM
SK-MEL-5 melanoma
  TGI: 29.7 µM
LOX IMVI melanoma
  TGI: 11.2 µM

## O=C(CNCc1ccccc1)Oc1c(Cl)c(Cl)c(Cl)c(Cl)c1Cl
SF-268 CNS
  TGI: > 100 µM
M14 melanoma
  TGI: > 100 µM
U251 CNS
  TGI: 70.5 µM
TK-10 renal
  TGI: > 100 µM
HS 578T breast
  TGI: 50.6 µM
NCI/ADR-RES ovarian
  TGI: > 100 µM
SF-539 CNS
  TGI: 95.6 µM
SK-MEL-2 melanoma
  TGI: 92 µM
LOX IMVI melanoma
  TGI: 74.4 µM

## NS(=O)(=O)c1ccc(NC(NC(=O)C(C(F)(F)F)C(F)(F)F)(C(F)(F)F)C(F)(F)F)cc1
SF-268 CNS
  TGI: > 100 µM
M14 melanoma
  TGI: > 100 µM
U251 CNS
  TGI: > 100 µM
TK-10 renal
  TGI: > 100 µM
HS 578T breast
  TGI: > 100 µM
NCI/ADR-RES ovarian
  TGI: > 100 µM
SF-539 CNS
  TGI: > 100 µM
SK-MEL-2 melanoma
  TGI: > 100 µM
SK-MEL-5 melanoma
  TGI: > 100 µM
LOX IMVI melanoma
  TGI: > 100 µM

## COc1cc2c(cc1OC)C13CC[N+]4(C)CC5=CCOC6CC(=O)N2C1C6C5CC34[O-] (configuration not stated)
SF-268 CNS
  TGI: > 100 µM
M14 melanoma
  TGI: > 100 µM
U251 CNS
  TGI: > 100 µM
TK-10 renal
  TGI: > 100 µM
HS 578T breast
  TGI: > 100 µM
NCI/ADR-RES ovarian
  TGI: > 100 µM
SF-539 CNS
  TGI: > 100 µM
SK-MEL-5 melanoma
  TGI: > 100 µM
LOX IMVI melanoma
  TGI: > 100 µM

Source: PubChem BioAssay (NCI)
